From PubChem BioAssay (NCI) come the findings set out here.

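The compound was tested at five concentrations on cells cultured in 96-well plates, with a 48-hour exposure period. TGI: total growth inhibition.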

Some test systems named below: HOP-62 NSCLC; OVCAR-8 ovarian; SF-268 CNS; SR leukemia; NCI/ADR-RES ovarian; MDA-MB-231 breast; SK-MEL-28 melanoma; HT29 colon; ACHN renal; SF-539 CNS; NCI-H460 lung; M14 melanoma; IGROV1 ovarian; SF-295 CNS; COLO 205 colon; T-47D breast; EKVX NSCLC; UACC-62 melanoma; UACC-257 melanoma; BT-549 breast.
Test in all cases: inhibition of tumour cell growth, NCI panel, 48 h

Take `COc1ccc(N/N=C/C2=CC(C)(C)C(C#N)(C#N)C(O)=C2C#N)cc1`: the TGI was above 100 µM in the assay with HOP-62 NSCLC; above 100 µM with OVCAR-8 ovarian; above 100 µM in the assay with SF-268 CNS; 82.3 µM in the assay on SR leukemia; above 100 µM in the assay with NCI/ADR-RES ovarian; above 100 µM in the assay on MDA-MB-231 breast. The TGI with SK-MEL-28 melanoma, in the assay with HT29 colon, in the assay with ACHN renal, in the assay with SF-539 CNS, with NCI-H460 lung and in the assay on M14 melanoma was above 100 µM in each case. Moreover, the TGI in the assay with IGROV1 ovarian was above 100 µM; with SF-295 CNS, above 100 µM; in the assay with COLO 205 colon it was 49.8 µM; in the assay on T-47D breast, above 100 µM; in the assay on EKVX NSCLC, above 100 µM; in the assay on UACC-62 melanoma, above 100 µM. In addition, the TGI in the assay on UACC-257 melanoma was above 100 µM.

With `COc1cccc(C=O)c1[O-].COc1cccc(C=O)c1[O-].[Zn+2]`, the TGI in the assay with HOP-62 NSCLC, in the assay with OVCAR-8 ovarian, in the assay on SF-268 CNS, with SR leukemia, in the assay on SK-MEL-28 melanoma and in the assay on HT29 colon was above 100 µM each time. The TGI was above 100 µM with ACHN renal; above 100 µM in the assay on SF-539 CNS; above 100 µM in the assay with NCI-H460 lung; above 100 µM in the assay on M14 melanoma; above 100 µM in the assay with IGROV1 ovarian; 68.1 µM in the assay with SF-295 CNS. For the same molecule, the TGI with COLO 205 colon was above 100 µM; with EKVX NSCLC, above 100 µM; with UACC-62 melanoma, above 100 µM; with UACC-257 melanoma, 99.2 µM.

As to `O=C1NC(=S)NC(=O)C1=CC1CC1`, the TGI in the assay on HOP-62 NSCLC, in the assay on OVCAR-8 ovarian, with SF-268 CNS, in the assay on SR leukemia, in the assay on SK-MEL-28 melanoma and in the assay with HT29 colon was above 100 µM throughout. In addition, the TGI in the assay on ACHN renal, with SF-539 CNS, in the assay with NCI-H460 lung, in the assay on M14 melanoma, in the assay on IGROV1 ovarian and in the assay with SF-295 CNS was above 100 µM in each case. Besides, the TGI in the assay on COLO 205 colon, in the assay on EKVX NSCLC, in the assay with UACC-62 melanoma and with UACC-257 melanoma was above 100 µM throughout.

Regarding `O=C1c2cn[nH]c2N=C(Nc2ccccc2)C1N=Cc1ccc([N+](=O)[O-])cc1` (configuration not stated), the TGI in the assay on OVCAR-8 ovarian, in the assay with SF-268 CNS, with SR leukemia, in the assay with BT-549 breast, in the assay with HT29 colon and in the assay on ACHN renal was above 10 µM throughout. Further, the TGI in the assay on SF-539 CNS, in the assay on NCI-H460 lung, with M14 melanoma, with SF-295 CNS, in the assay on EKVX NSCLC and in the assay on UACC-257 melanoma was above 10 µM throughout.

In the case of `C/C=C\C(CC(=O)NCCC1CN(C(=O)OCc2ccccc2)c2ccccc21)CC(=O)OC` (configuration not stated), the TGI in the assay with HOP-62 NSCLC, in the assay with OVCAR-8 ovarian, with SF-268 CNS, in the assay on NCI/ADR-RES ovarian, in the assay on MDA-MB-231 breast and in the assay on BT-549 breast was above 100 µM throughout. Also, the TGI with SK-MEL-28 melanoma, in the assay with HT29 colon, in the assay on ACHN renal, in the assay on NCI-H460 lung, with M14 melanoma and with IGROV1 ovarian was above 100 µM throughout. Moreover, the TGI with SF-295 CNS, in the assay with COLO 205 colon, in the assay on EKVX NSCLC, in the assay with UACC-62 melanoma and in the assay with UACC-257 melanoma was above 100 µM throughout.

As for `O=C1CCCCCCCCCCC1CN1CCOCC1` (configuration not stated), the TGI in the assay on HOP-62 NSCLC, in the assay with OVCAR-8 ovarian, with SF-268 CNS, in the assay with SR leukemia, in the assay with MDA-MB-231 breast and with BT-549 breast was above 100 µM throughout. Besides, the TGI in the assay on SK-MEL-28 melanoma, with ACHN renal, in the assay with SF-539 CNS, in the assay with M14 melanoma, with IGROV1 ovarian and with SF-295 CNS was above 100 µM each time. Also, the TGI with COLO 205 colon, in the assay with T-47D breast, in the assay with EKVX NSCLC, in the assay with UACC-62 melanoma and in the assay with UACC-257 melanoma was above 100 µM in each case.

Take `CN/N=C(\C)C(CN1CCCCC1)C(C1=C(O)c2ccccc2OC1)c1ccccc1` (configuration not stated): the TGI in the assay with HOP-62 NSCLC, in the assay with OVCAR-8 ovarian, with SF-268 CNS, with SR leukemia, with SK-MEL-28 melanoma and in the assay with HT29 colon was above 100 µM each time. Also, the TGI in the assay on ACHN renal, with SF-539 CNS, with NCI-H460 lung, with M14 melanoma, in the assay on IGROV1 ovarian and in the assay with SF-295 CNS was above 100 µM in each case. The TGI with COLO 205 colon, with EKVX NSCLC, in the assay with UACC-62 melanoma and with UACC-257 melanoma was above 100 µM each time.

Turning to `N#Cc1sc2c(c1OC(=O)c1ccc(Cl)cc1Cl)c(=O)n(-c1ccccc1)c(=S)n2-c1ccccc1`, the TGI was 96.4 µM in the assay with HOP-62 NSCLC; above 100 µM in the assay on OVCAR-8 ovarian; above 100 µM with SF-268 CNS; above 100 µM with SR leukemia; 50.3 µM with NCI/ADR-RES ovarian; 75.1 µM with MDA-MB-231 breast. Moreover, the TGI was above 100 µM with SK-MEL-28 melanoma; 55 µM with HT29 colon; above 100 µM in the assay with ACHN renal; 39.2 µM in the assay with SF-539 CNS; above 100 µM in the assay with NCI-H460 lung; 36.6 µM in the assay with M14 melanoma. The TGI with IGROV1 ovarian was 38.6 µM; in the assay with SF-295 CNS it was 81.2 µM; in the assay with COLO 205 colon, 42.2 µM; with T-47D breast it was above 100 µM; with EKVX NSCLC it was 65.1 µM; in the assay on UACC-62 melanoma, 40.4 µM. In the assay with UACC-257 melanoma, the TGI is above 100 µM.
